# Data: patent US20080200442A1, “Compositions and Methods for Treating, Reducing, Ameliorating, or Preventing Infections of the Ear or Upper Respiratory Tract” (priority 2007, published 2008)
# System: Ofloxacin-resistant Enterobacteriaceae
# Assay: organism not typed
# Format: cell-based
row,Compound,MIC90 [µg/mL]
1,NC1CCCCN(c2c(F)cc3c(=O)c(C(=O)O)cn(C4CC4)c3c2Cl)C1 (stereo not drawn) [Compound Having Formula III],16
2,CCn1cc(C(=O)O)c(=O)c2cc(F)c(N3CCNCC3)cc21 [Norfloxacin],128
3,CC1COc2c(N3CCN(C)CC3)c(F)cc3c(=O)c(C(=O)O)cn1c23 (stereo not drawn) [Ofloxacin],64
